Each structure is given as a SMILES string.

Assay [1] concerns the target T1, lipoxygenase (EC 1.13.11.12) Type 1 (soybean) (Glycine max, UniProt P08170).
T1 construct: gene LOX1.1
T1 sequence (P08170 1-839): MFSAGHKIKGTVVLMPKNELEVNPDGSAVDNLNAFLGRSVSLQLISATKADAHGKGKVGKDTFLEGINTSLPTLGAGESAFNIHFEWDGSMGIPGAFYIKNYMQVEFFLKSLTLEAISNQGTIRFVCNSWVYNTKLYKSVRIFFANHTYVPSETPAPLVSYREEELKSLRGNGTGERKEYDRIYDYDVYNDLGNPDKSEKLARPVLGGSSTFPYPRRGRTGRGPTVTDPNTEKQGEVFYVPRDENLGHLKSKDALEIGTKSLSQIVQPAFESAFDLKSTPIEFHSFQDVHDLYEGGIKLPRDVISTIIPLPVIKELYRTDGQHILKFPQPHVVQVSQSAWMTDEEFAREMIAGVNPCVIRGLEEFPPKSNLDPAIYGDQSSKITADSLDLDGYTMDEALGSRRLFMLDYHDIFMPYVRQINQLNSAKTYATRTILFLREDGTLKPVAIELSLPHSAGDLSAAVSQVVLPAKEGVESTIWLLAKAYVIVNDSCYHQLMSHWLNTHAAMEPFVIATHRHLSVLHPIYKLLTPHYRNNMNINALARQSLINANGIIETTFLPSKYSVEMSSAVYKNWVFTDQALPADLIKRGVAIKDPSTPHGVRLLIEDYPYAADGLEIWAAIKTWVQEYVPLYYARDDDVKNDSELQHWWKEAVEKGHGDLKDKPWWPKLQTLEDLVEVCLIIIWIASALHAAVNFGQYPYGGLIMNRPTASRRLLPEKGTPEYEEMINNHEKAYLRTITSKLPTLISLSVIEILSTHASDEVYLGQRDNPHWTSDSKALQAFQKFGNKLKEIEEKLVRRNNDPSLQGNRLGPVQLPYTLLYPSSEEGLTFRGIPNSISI
In words: spectrophotometric lipoxygenase inhibition assay with linoleic acid substrate (positive control). In kind it is biochemical.

In assay [2] the target is T1, lipoxygenase (EC 1.13.11.12) Type 1 (soybean). In words: spectrophotometric lipoxygenase inhibition assay with linoleic acid substrate. In kind it is biochemical.

Consider `O=c1cc(-c2ccccc2)oc2cc(O)c(O)c(O)c12` [Baicalein], for which the IC50 (as a rule, the midpoint of a concentration-inhibition curve) in assay [1] is 40.9 µM. As for `NC(=O)N1C(=O)/C(=C(\O)c2cccs2)c2cc(Cl)ccc21` [Tenidap], in assay [1] (read-out: IC50), the half-inhibitory concentration (IC50) was 23 µM.

`COc1c(C)c(-c2cc(O)c3c(c2O)C(=O)C(C)=CC3=O)c(OC)c2c1C(=O)C=CC2=O` [compound 1, 1′,4′-dihydroxy-1,4-dimethoxy-3,7′-dimethyl-[2,2′-binaphthalene]-5,5′,8,8′-tetraone] came in with an IC50 in assay [2] of 37 µM.

These data come from publication PMC9989937, “In-vitro antioxidant, lipoxygenase inhibitory, and in-vivo muscle relaxant potential of the extract and constituent isolated from Diospyros kaki (Japanese Persimmon)” (Heliyon, 2023).
